Reference: ChEMBL document CHEMBL3596091, “Synthesis and evaluation of novel fluorinated pyrazolo-1,2,3-triazole hybrids as antimycobacterial agents” (Bioorg Med Chem Lett, 2015)
In brackets after ≈: the same amount, converted by molar mass.

What was measured:
[1] = system: Mycolicibacterium smegmatis; assay: Antimycobacterial activity against Mycobacterium smegmatis str. MC2 155 incubated for 30 hrs by turbidometric assay; type: functional; details: str. MC2 155, 30 h
A549 = assay: Cytotoxicity against human A549 cells incubated for 48 hrs by SRB assay; type: cell-based; details: A549, 48 h

For COc1ccc(/C=N/NC(=O)c2cn(CC(=O)Nc3c(C(F)(F)F)n[nH]c3-c3ccccc3)nn2)cc1OC, the MIC [1] was 41.3 µg/mL (≈ 76.1 µM) and the IC50 (A549) was over 100 µg/mL.
Cc1cccc(-c2cn(CC(=O)Nc3c(C(F)(F)F)n[nH]c3-c3ccccc3)nn2)c1 showed an MIC [1] of 29.9 µg/mL (≈ 70.2 µM) and an IC50 (A549) of 60.6 µg/mL (≈ 142 µM).
For O=C(Cn1cc(C(=O)N/N=C/c2ccccc2C(F)(F)F)nn1)Nc1c(C(F)(F)F)n[nH]c1-c1ccccc1, the MIC [1] was 16.2 µg/mL (≈ 29.4 µM) and the IC50 (A549) was over 100 µg/mL.
O=C(Cn1cc(-c2ccccc2)nn1)Nc1c(C(F)(F)F)n[nH]c1-c1ccccc1 gave an MIC [1] of 35.9 µg/mL (≈ 87.1 µM) and an IC50 (A549) of 52.2 µg/mL (≈ 127 µM).
COc1ccc(-c2cn(CC(=O)Nc3c(C(F)(F)F)n[nH]c3-c3ccccc3)nn2)c(C)c1 gave an MIC [1] of 85.6 µg/mL (≈ 188 µM) and an IC50 (A549) of 54 µg/mL (≈ 118 µM).
Compound COc1ccc(-c2nn(-c3ccccc3)cc2C(=O)c2cn(CC(=O)Nc3c(C(F)(F)F)n[nH]c3-c3ccccc3)nn2)cc1 has an MIC [1] of 25.3 µg/mL (≈ 41.2 µM) and an IC50 (A549) of 59.6 µg/mL (≈ 97.3 µM).
COc1ccc(C(=O)c2cn(CC(=O)Nc3c(C(F)(F)F)n[nH]c3-c3ccccc3)nn2)cc1 gave an MIC [1] of 15.3 µg/mL (≈ 32.6 µM) and an IC50 (A549) of 80.7 µg/mL (≈ 172 µM).
For CCCCc1cn(CC(=O)Nc2c(C(F)(F)F)n[nH]c2-c2ccccc2)nn1, the MIC [1] was 65.5 µg/mL (≈ 167 µM) and the IC50 (A549) was over 100 µg/mL.
CC(C)(C)c1ccc(-c2cn(CC(=O)Nc3c(C(F)(F)F)n[nH]c3-c3ccccc3)nn2)cc1 was tested, and the MIC [1] was over 100 µg/mL and the IC50 (A549) was 25.8 µg/mL (≈ 55.2 µM).
Work on CCCCCc1ccc(-c2cn(CC(=O)Nc3c(C(F)(F)F)n[nH]c3-c3ccccc3)nn2)cc1 yielded an MIC [1] of 35.4 µg/mL (≈ 73.3 µM) and an IC50 (A549) of over 100 µg/mL.
Compound O=C(Cn1cc(CNc2cccc(C(F)(F)F)c2)nn1)Nc1c(C(F)(F)F)n[nH]c1-c1ccccc1 has an MIC [1] of 99.6 µg/mL (≈ 196 µM) and an IC50 (A549) of 25.3 µg/mL (≈ 49.7 µM).
In the case of COc1ccc(/C=N/NC(=O)c2cn(CC(=O)Nc3c(C(F)(F)F)n[nH]c3-c3ccccc3)nn2)cc1, the MIC [1] is reported as 45.6 µg/mL (≈ 88.9 µM) and the IC50 (A549) is reported as over 100 µg/mL.
In the case of COc1cc(NCc2cn(CC(=O)Nc3c(C(F)(F)F)n[nH]c3-c3ccccc3)nn2)cc(OC)c1OC, the MIC [1] is reported as 78.3 µg/mL (≈ 147 µM) and the IC50 (A549) is reported as over 100 µg/mL.
For O=C(Cn1cc(C(=O)c2cn(-c3ccccc3)nc2-c2ccc(Cl)cc2)nn1)Nc1c(C(F)(F)F)n[nH]c1-c1ccccc1, the MIC [1] was over 100 µg/mL and the IC50 (A549) was over 100 µg/mL.
In the case of NNC(=O)c1cn(CC(=O)Nc2c(C(F)(F)F)n[nH]c2-c2ccccc2)nn1, the MIC [1] is reported as 33.9 µg/mL (≈ 85.9 µM) and the IC50 (A549) is reported as 67.6 µg/mL (≈ 171 µM).
With O=C(Cn1cc(COc2cccc3c(C(F)(F)F)cc(=O)oc23)nn1)Nc1c(C(F)(F)F)n[nH]c1-c1ccccc1 the MIC [1] was 53.7 µg/mL (≈ 92.8 µM) and the IC50 (A549) was over 100 µg/mL.
Work on COc1ccc(NCc2cn(CC(=O)Nc3c(C(F)(F)F)n[nH]c3-c3ccccc3)nn2)cc1OC yielded an MIC [1] of 58.3 µg/mL (≈ 116 µM) and an IC50 (A549) of over 100 µg/mL.
For COc1cccc(NCc2cn(CC(=O)Nc3c(C(F)(F)F)n[nH]c3-c3ccccc3)nn2)c1, the MIC [1] was 53.9 µg/mL (≈ 114 µM) and the IC50 (A549) was 38.3 µg/mL (≈ 81.3 µM).
Cc1ccc(-c2nn(-c3ccccc3)cc2C(=O)c2cn(CC(=O)Nc3c(C(F)(F)F)n[nH]c3-c3ccccc3)nn2)cc1 gave an MIC [1] of 94.5 µg/mL (≈ 158 µM) and an IC50 (A549) of over 100 µg/mL.
O=C(Cn1cc(-c2ccccc2C(F)(F)F)nn1)Nc1c(C(F)(F)F)n[nH]c1-c1ccccc1 gave an MIC [1] of 53 µg/mL (≈ 110 µM) and an IC50 (A549) of 64.2 µg/mL (≈ 134 µM).
O=C(Cn1cc(C(=O)c2cn(-c3ccccc3)nc2-c2ccccc2)nn1)Nc1c(C(F)(F)F)n[nH]c1-c1ccccc1 showed an MIC [1] of 28.8 µg/mL (≈ 49.5 µM) and an IC50 (A549) of 68 µg/mL (≈ 117 µM).
CCOC(=O)c1cn(CC(=O)Nc2c(C(F)(F)F)n[nH]c2-c2ccccc2)nn1 gave an MIC [1] of 27.7 µg/mL (≈ 67.9 µM) and an IC50 (A549) of over 100 µg/mL.
Work on CO[C@H]1/C=C/O[C@@]2(C)Oc3c(C)c(O)c4c(O)c(c(/C=N/N5CCN(C)CC5)c(O)c4c3C2=O)NC(=O)/C(C)=C\C=C\[C@H](C)[C@H](O)[C@@H](C)[C@@H](O)[C@@H](C)[C@H](OC(C)=O)[C@@H]1C [RIFAMPIN] yielded an MIC [1] of 2.15 µg/mL (≈ 2.61 µM).
For COc1cccc2c1C(=O)c1c(O)c3c(c(O)c1C2=O)C[C@@](O)(C(=O)CO)C[C@@H]3O[C@H]1C[C@H](N)[C@H](O)[C@H](C)O1 [DOXORUBICIN], the IC50 (A549) was 8.5 µg/mL (≈ 15.6 µM).
Work on COc1ccc(C(=O)c2cn(CC(=O)Nc3c(C(F)(F)F)n[nH]c3-c3ccccc3)nn2)cc1OC yielded an MIC [1] of 65.7 µg/mL (≈ 131 µM) and an IC50 (A549) of 26.8 µg/mL (≈ 53.6 µM).
Work on NNC(=O)c1ccncc1 [ISONIAZID] yielded an MIC [1] of 12.1 µg/mL (≈ 88 µM).
O=C(Cn1cc(C(=O)N/N=C/c2ccc(C(F)(F)F)cc2)nn1)Nc1c(C(F)(F)F)n[nH]c1-c1ccccc1 was tested, and the MIC [1] was over 100 µg/mL and the IC50 (A549) was over 100 µg/mL.
O=C(Cn1cc(C(=O)N/N=C/c2cccc(Oc3ccccc3)c2)nn1)Nc1c(C(F)(F)F)n[nH]c1-c1ccccc1 showed an MIC [1] of 16.6 µg/mL (≈ 28.9 µM) and an IC50 (A549) of over 100 µg/mL.
In the case of O=C(Cn1cc(-c2ccc(-c3ccccc3)cc2)nn1)Nc1c(C(F)(F)F)n[nH]c1-c1ccccc1, the MIC [1] is reported as 31.8 µg/mL (≈ 65 µM) and the IC50 (A549) is reported as 57 µg/mL (≈ 117 µM).
For Cc1cccc(C)c1NCc1cn(CC(=O)Nc2c(C(F)(F)F)n[nH]c2-c2ccccc2)nn1, the MIC [1] was 64.1 µg/mL (≈ 136 µM) and the IC50 (A549) was 52.9 µg/mL (≈ 113 µM).
O=C(Cn1cc(-c2ccc(OC(F)(F)F)cc2)nn1)Nc1c(C(F)(F)F)n[nH]c1-c1ccccc1 was tested, and the MIC [1] was 35.4 µg/mL (≈ 71.3 µM) and the IC50 (A549) was 45.3 µg/mL (≈ 91.2 µM).
